Among the data in patent US9056874B2, “Complement pathway modulators and uses thereof” (NOVARTIS AG, priority 2012, dated 2015) are IC50 values, retold here.

Chain of factor B (P00751 260-764 limits assumed): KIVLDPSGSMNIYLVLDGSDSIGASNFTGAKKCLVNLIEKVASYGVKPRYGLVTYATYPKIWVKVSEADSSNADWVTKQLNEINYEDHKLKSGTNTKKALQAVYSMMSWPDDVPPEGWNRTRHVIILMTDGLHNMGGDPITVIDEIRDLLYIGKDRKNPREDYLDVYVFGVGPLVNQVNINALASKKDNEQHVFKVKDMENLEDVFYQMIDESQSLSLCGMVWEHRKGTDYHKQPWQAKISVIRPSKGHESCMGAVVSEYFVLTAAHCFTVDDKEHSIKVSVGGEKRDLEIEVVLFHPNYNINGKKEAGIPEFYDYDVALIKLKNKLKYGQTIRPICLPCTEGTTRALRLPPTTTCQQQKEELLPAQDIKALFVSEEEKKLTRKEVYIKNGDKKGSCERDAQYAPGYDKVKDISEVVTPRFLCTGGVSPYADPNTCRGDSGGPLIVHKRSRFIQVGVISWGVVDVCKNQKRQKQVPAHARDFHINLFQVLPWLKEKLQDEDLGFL
Chain of factor B (Q91132 23-649 partner limits assumed): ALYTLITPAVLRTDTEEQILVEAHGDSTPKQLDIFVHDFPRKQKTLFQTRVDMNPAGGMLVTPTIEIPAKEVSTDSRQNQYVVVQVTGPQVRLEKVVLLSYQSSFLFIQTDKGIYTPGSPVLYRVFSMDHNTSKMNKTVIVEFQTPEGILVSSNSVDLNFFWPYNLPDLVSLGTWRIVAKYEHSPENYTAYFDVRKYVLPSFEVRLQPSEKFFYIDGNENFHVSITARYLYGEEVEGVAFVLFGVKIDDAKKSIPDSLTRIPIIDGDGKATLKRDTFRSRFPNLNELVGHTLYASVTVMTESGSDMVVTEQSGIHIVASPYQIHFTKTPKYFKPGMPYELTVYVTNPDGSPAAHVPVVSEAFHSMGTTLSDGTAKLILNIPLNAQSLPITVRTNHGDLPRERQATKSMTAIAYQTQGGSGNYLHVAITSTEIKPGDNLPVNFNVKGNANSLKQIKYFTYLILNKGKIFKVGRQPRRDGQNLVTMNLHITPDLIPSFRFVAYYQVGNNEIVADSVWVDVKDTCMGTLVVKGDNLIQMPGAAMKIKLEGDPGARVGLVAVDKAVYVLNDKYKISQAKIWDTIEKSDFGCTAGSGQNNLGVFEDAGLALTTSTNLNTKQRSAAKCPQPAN
Chain of factor B (Q91132 733-984 partner limits assumed): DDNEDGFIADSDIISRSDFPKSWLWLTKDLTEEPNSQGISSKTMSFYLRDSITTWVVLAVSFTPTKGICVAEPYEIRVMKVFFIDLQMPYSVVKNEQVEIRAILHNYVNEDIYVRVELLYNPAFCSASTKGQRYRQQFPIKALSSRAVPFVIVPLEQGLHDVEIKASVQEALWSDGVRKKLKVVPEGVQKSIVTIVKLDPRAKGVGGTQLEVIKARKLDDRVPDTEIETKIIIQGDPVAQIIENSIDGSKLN
Chain of factor B (Q91132 1264-1642 partner limits assumed): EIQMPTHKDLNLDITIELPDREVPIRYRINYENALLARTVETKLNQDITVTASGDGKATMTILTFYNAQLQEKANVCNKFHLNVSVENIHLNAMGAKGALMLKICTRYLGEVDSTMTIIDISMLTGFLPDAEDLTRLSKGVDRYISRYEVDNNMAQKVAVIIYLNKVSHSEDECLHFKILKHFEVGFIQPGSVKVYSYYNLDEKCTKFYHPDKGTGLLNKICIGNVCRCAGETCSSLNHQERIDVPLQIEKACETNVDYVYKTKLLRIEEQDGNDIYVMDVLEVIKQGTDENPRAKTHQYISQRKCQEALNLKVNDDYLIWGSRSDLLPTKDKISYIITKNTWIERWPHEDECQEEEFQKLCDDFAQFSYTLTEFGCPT

This assay addresses factor B (Homo sapiens, UniProt P00751). Briefly: factor B inhibition assay of Biological Example 1. The format is biochemical. The arrangement: CVF-Bb complex prepared from purified cobra venom factor (1 μM), recombinant human complement factor B; made in house; host or cells: drosophila cells (factor B); E. coli (factor D used to form the complex). The note with it: IC50 (nM), assay of Biological Example 1 (Table 1).
As to `COC(c1nc2cc(C#N)ccc2[nH]1)c1c(CC(C)C)cc(C)c2[nH]ccc12` (single isomer, unassigned; (-)) [71 b) (−), (−)-2-((5-isobutyl-7-methyl-1H-indol-4-yl)(methoxy)methyl)-1H-benzo[d]imidazole-5-carbonitrile], the IC50 worked out at 4590 nM.
`Cc1cc(C)c2[nH]ccc2c1C(C)(O)c1nc2cc(C#N)ccc2[nH]1` (single isomer, unassigned; (-)) [76-B b) (−), (−)-2-(1-(5,7-Dimethyl-1H-indol-4-yl)-1-hydroxyethyl)-1H-benzo[d]imidazole-5-carbonitrile]: the 50% inhibitory concentration (IC50) came out at 190 nM.
For the compound `CCc1cc(C)c2[nH]ccc2c1C(C)(O)c1nc2cc(C#N)ccc2[nH]1` (single isomer, unassigned; (-)) [77-C b) (−), (−)-2-(1-(5-ethyl-7-methyl-1H-indol-4-yl)-1-hydroxyethyl)-1H-benzo[d]imidazole-5-carbonitrile], the 50% inhibitory concentration (IC50) was found to be 20 nM.
With `Cc1cc(C(C)C)c(C(C)(O)c2nc3cc(C#N)ccc3[nH]2)c2cc[nH]c12` (single isomer, unassigned; (-)) [79-B b) (−), (−)-2-(1-hydroxy-1-(5-isopropyl-7-methyl-1H-indol-4-yl)ethyl)-1H-benzo[d]imidazole-5-carbonitrile] the figure was 260 nM; with `Cc1cc(C2CC2)c(C(C)(O)c2nc3cc(C#N)ccc3[nH]2)c2cc[nH]c12` (single isomer, unassigned; (-)) [79-C b) (−), (−)-2-(1-(5-cyclopropyl-7-methyl-1H-indol-4-yl)-1-hydroxyethyl)-1H-benzo[d]imidazole-5-carbonitrile], 6 nM; with `Cc1cc(CC(C)C)c(C(C)(O)c2nc3cc(C#N)ccc3[nH]2)c2cc[nH]c12` (single isomer, unassigned; (-)) [79-D b) (−), (−)-2-(1-hydroxy-1-(5-isobutyl-7-methyl-1H-indol-4-yl)ethyl)-1H-benzo[d]imidazole-5-carbonitrile], 310 nM.
With `Cc1cc(Cl)c(C(C)(O)c2nc3cc(C#N)ccc3[nH]2)c2cc[nH]c12` (single isomer, unassigned; (-)) [79-E b) (−), (−)-2-(1-(5-chloro-7-methyl-1H-indol-4-yl)-1-hydroxyethyl)-1H-benzo[d]imidazole-5-carbonitrile] the figure was 350 nM; with `CCc1cc(C)c2[nH]ccc2c1C(O)(c1nc2cc(C#N)ccc2[nH]1)C(F)(F)F` (single isomer, unassigned; (-)) [80-C b) (−), (−)-2-(1-(5-ethyl-7-methyl-1H-indol-4-yl)-2,2,2-trifluoro-1-hydroxyethyl)-1H-benzo[d]imidazole-5-carbonitrile], 10 nM.
The figure for `Cc1cc(C)c2[nH]ccc2c1C(O)(c1nc2cc(C#N)ccc2[nH]1)C(F)(F)F` (single isomer, unassigned; (-)) [80-D b) (−), (−)-2-(1-(5,7-dimethyl-1H-indol-4-yl)-2,2,2-trifluoro-1-hydroxyethyl)-1H-benzo[d]imidazole-5-carbonitrile] is 70 nM; for `Cc1cc(C2CC2)c(C(O)(c2nc3cc(C#N)ccc3[nH]2)C(F)(F)F)c2cc[nH]c12` (single isomer, unassigned; (-)) [80-E b) (−), (−)-2-(1-(5-cyclopropyl-7-methyl-1H-indol-4-yl)-2,2,2-trifluoro-1-hydroxyethyl)-1H-benzo[d]imidazole-5-carbonitrile] it is 10 nM.
As to `Cc1cc(C(C)C)c(C(O)(c2nc3cc(C#N)ccc3[nH]2)C(F)(F)F)c2cc[nH]c12` (single isomer, unassigned; (-)) [80-F b) (−), (−)-2-(2,2,2-trifluoro-1-hydroxy-1-(5-isopropyl-7-methyl-1H-indol-4-yl)ethyl)-1H-benzo[d]imidazole-5-carbonitrile], the half-inhibitory concentration (IC50) came to 20 nM.
The figure for `COC(C)(c1nc2cc(C#N)ccc2[nH]1)c1c(C)cc(C)c2[nH]ccc12` (single isomer, unassigned; (-)) [84-B b) (−), (−)-2-(1-(5,7-dimethyl-1H-indol-4-yl)-1-methoxyethyl)-1H-benzo[d]imidazole-5-carbonitrile] is 50 nM; for `CCc1cc(C)c2[nH]ccc2c1C(C)(OC)c1nc2cc(C#N)ccc2[nH]1` (single isomer, unassigned; (-)) [84-C b) (−), (−)-2-(1-(5-ethyl-7-methyl-1H-indol-4-yl)-1-methoxyethyl)-1H-benzo[d]imidazole-5-carbonitrile] it is 10 nM.
With `CCc1cc(C)c2[nH]ccc2c1C(OC)(c1nc2cc(C#N)ccc2[nH]1)C(F)(F)F` (single isomer, unassigned; (-)) [84-D b) (−), (−)-2-(1-(5-ethyl-7-methyl-1H-indol-4-yl)-2,2,2-trifluoro-1-methoxyethyl)-1H-benzo[d]imidazole-5-carbonitrile] the figure was 8 nM; with `COC(C)(c1nc2cc(C#N)ccc2[nH]1)c1c(CC(C)C)cc(C)c2[nH]ccc12` (single isomer, unassigned; (-)) [84-E b) (−), (−)-2-(1-(5-isobutyl-7-methyl-1H-indol-4-yl)-1-methoxyethyl)-1H-benzo[d]imidazole-5-carbonitrile], 260 nM.
With `Cc1cc(C)c2[nH]ccc2c1C(N)c1nc2ccc(C#N)cc2[nH]1` (single isomer, unassigned; (-)) [95-B b) (−), (−)-2-(amino(5,7-dimethyl-1H-indol-4-yl)methyl)benzo[d]imidazole-5-carbonitrile] the figure was 480 nM.
For `CCc1cc(C)c2[nH]ccc2c1C(N)c1nc2cc(C#N)ccc2[nH]1` (single isomer, unassigned; (-)) [96-C b) (−), (−)-2-(amino(5-ethyl-7-methyl-1H-indol-4-yl)methyl)-1H-benzo[d]imidazole-5-carbonitrile], the IC50 was found to be 70 nM.
The figure for `CCc1cc(C)c2[nH]ccc2c1C(C)(N)c1nc2cc(C#N)ccc2[nH]1` (single isomer, unassigned; (-)) [102-C b) (−), (−)-2-(1-amino-1-(5-ethyl-7-methyl-1H-indol-4-yl)ethyl)-1H-benzo[d]imidazole-5-carbonitrile] is 10 nM; for `Cc1cc(C2CC2)c(C(C)(N)c2nc3cc(C#N)ccc3[nH]2)c2cc[nH]c12` (single isomer, unassigned; (-)) [102-D b) (−), (−)-2-(1-amino-1-(5-cyclopropyl-7-methyl-1H-indol-4-yl)ethyl)-1H-benzo[d]imidazole-5-carbonitrile] it is 8 nM.
As for `Cc1cc(Br)c(C(N)(c2nc3cc(C#N)ccc3[nH]2)C(F)(F)F)c2cc[nH]c12` (single isomer, unassigned; (-)) [105-B b) (−), (−)-2-(1-amino-1-(5-bromo-7-methyl-1H-indol-4-yl)-2,2,2-trifluoroethyl)-1H-benzo[d]imidazole-5-carbonitrile], the IC50 came to 20 nM.
As to `CNC(c1nc2cc(C#N)ccc2[nH]1)(c1c(Br)cc(C)c2[nH]ccc12)C(F)(F)F` (single isomer, unassigned; (-)) [106 b) (−), (−)-2-(1-(5-bromo-7-methyl-1H-indol-4-yl)-2,2,2-trifluoro-1-(methylamino)ethyl)-1H-benzo[d]imidazole-5-carbonitrile], the IC50 was 8 nM.
Regarding `CCc1cc(C)c2[nH]ccc2c1C(NC)(c1nc2cc(C#N)ccc2[nH]1)C(F)(F)F` (single isomer, unassigned; (-)) [107-B b) (−), (−)-2-(1-(5-ethyl-7-methyl-1H-indol-4-yl)-2,2,2-trifluoro-1-(methylamino)ethyl)-1H-benzo[d]imidazole-5-carbonitrile], the half-maximal inhibitory concentration (IC50) was 3 nM.
With `CCc1cc(C)c2[nH]ccc2c1C(N)(c1nc2cc(C#N)ccc2[nH]1)C(F)(F)F` (single isomer, unassigned; (-)) [107-C b) (−), (−)-2-(1-amino-1-(5-ethyl-7-methyl-1H-indol-4-yl)-2,2,2-trifluoroethyl)-1H-benzo[d]imidazole-5-carbonitrile] the figure was 30 nM.
Consider `Cc1cc(C2CC2)c(C(N)(c2nc3cc(C#N)ccc3[nH]2)C(F)(F)F)c2cc[nH]c12` (single isomer, unassigned; (-)) [107-D b) (−), (−)-2-(1-amino-1-(5-cyclopropyl-7-methyl-1H-indol-4-yl)-2,2,2-trifluoroethyl)-1H-benzo[d]imidazole-5-carbonitrile], for which the IC50 stood at 8 nM.
As to `CNC(c1nc2cc(C#N)ccc2[nH]1)(c1c(C2CC2)cc(C)c2[nH]ccc12)C(F)(F)F` (single isomer, unassigned; (-)) [107-E b) (−), (−)-2-(1-(5-cyclopropyl-7-methyl-1H-indol-4-yl)-2,2,2-trifluoro-1-(methylamino)ethyl)-1H-benzo[d]imidazole-5-carbonitrile], the IC50 came to 3 nM.
With `COc1cc(C)c2c(c1C(C)(OC)c1nc3cc(C#N)ccc3[nH]1)CCN2` (single isomer, unassigned; (-)) [124 b) (−), (−)-2-(1-methoxy-1-(5-methoxy-7-methylindolin-4-yl)ethyl)-1H-benzo[d]imidazole-5-carbonitrile] the figure was 11 nM; with `COc1cc(C)c2[nH]ccc2c1C(O)c1nc2cc(C#N)ccc2o1` (single isomer, unassigned; (-)) [125-B b) (−), (−)-2-(hydroxy(5-methoxy-7-methyl-1H-indol-4-yl)methyl)benzo[d]oxazole-5-carbonitrile], 3 nM; with `COc1cc(C)c2[nH]ccc2c1C(O)(c1nc2cc(C#N)ccc2o1)C(F)(F)F` (single isomer, unassigned; (-)) [128-B b) (−), (−)-2-(2,2,2-trifluoro-1-hydroxy-1-(5-methoxy-7-methyl-1H-indol-4-yl)ethyl)benzo[d]oxazole-5-carbonitrile], 3 nM.
With `COc1cc(C)c2[nH]ccc2c1C(C)(N)c1nc2cc(C#N)ccc2o1` (single isomer, unassigned; (-)) [131-B b) (−), (−)-2-(1-amino-1-(5-methoxy-7-methyl-1H-indol-4-yl)ethyl)benzo[d]oxazole-5-carbonitrile] the figure was 52 nM.

In general, IC50 refers to the concentration needed to halve the response being measured.
